# Measured values as given in patent publication US20120245161A1 (SANOFI, priority 2009, published 2012).
# Structures can show the parent of a compound that is named as a salt.
# Assays:
# β-tryptase = conditions: inhaled, cited from earlier work
# [1] = target: T1, recombinant human beta tryptase (Homo sapiens, UniProt P20231); experiment: beta-Tryptase inhibition, chromogenic enzyme assay (substrate S2366, read at 405 nm); assay type: biochemical; conditions: Tryptase Ki (nM), Ki calculated from IC50: Ki=IC50/(1+[Substrate]/Km); 0.5 mM substrate, room temperature
# T1 construct: made in house; host or cells: yeast cells
# T1 sequence (P20231 31-275): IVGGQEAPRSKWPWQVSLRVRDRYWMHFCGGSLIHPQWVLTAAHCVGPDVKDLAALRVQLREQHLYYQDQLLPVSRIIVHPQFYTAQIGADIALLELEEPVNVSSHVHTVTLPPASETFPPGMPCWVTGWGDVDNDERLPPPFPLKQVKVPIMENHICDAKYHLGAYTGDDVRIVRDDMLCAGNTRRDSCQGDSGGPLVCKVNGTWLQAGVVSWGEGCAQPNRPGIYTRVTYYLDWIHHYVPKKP
# Summary of the method: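 Recombinant human beta tryptase (yeast-expressed; native lung enzyme also used), 50 ng/mL final, with 0.5 mM (2×Km) chromogenic substrate S2366; 30 min in the dark, room temperature, read at 405 nm. Compounds at 0.01-10 μM in duplicate for IC50; Ki=IC50/(1+[S]/Km).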
SMILES,Clinical proof-of-concept for asthma (β-tryptase; bronchial allergen challenge),development outcome / tolerability (β-tryptase),Ki [1] [nM],melting point [°C]
NC(=O)[C@@H]1CCCN1C(=O)[C@H](CCCN=C(N)N)NC(=O)c1ccc2ccccc2c1O [APC-366],Clinical proof-of-concept,terminated due to bronchial irritation,–,–
"COCCn1cc(C(=O)N2CCC(c3cc(CN)ccc3F)CC2)c2c(C(=O)N3CCOCC3)cccc21.Cl [Example 59, [3-[4-(5-Aminomethyl-2-fluoro-phenyl)-piperidine-1-carbonyl]-1-(2-methoxy-ethyl)-1H-indol-4-yl]-morpholin-4-yl-methanone hydrochloride]",–,–,32,142 to 147
"COCCn1cc(C(=O)N2CCC(c3cc(CN)ccc3F)CC2)c2c(C(=O)NC3CC3)cccc21 [Example 123, 3-[4-(5-Aminomethyl-2-fluoro-phenyl)-piperidine-1-carbonyl]-1-(2-methoxy-ethyl)-1H-indole-4-carboxylic acid cyclopropylamide hydrochloride]",–,–,50,–
"COCCn1cc(C(=O)N2CCC(c3cc(CN)ccc3F)CC2)c2c(NC(=O)c3cnco3)cccc21 [Example 124, Oxazole-5-carboxylic acid [3-[4-(5-aminomethyl-2-fluoro-phenyl)-piperidine-1-carbonyl]-1-(2-methoxy-ethyl)-1H-indol-4-yl]-amide hydrochloride]",–,–,8,–
